# Assay results from PubChem BioAssay (NCI).
#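 GI50: concentration for 50% inhibition of growth. TGI marks complete inhibition of growth.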
# Legend:
# Assay in all cases: growth of human tumour cells (NCI), 384-well format
# SF-268 CNS = tested on: SF-268 CNS
# KM12 colon = tested on: KM12 colon
# RXF 393 renal = tested on: RXF 393 renal
# CAKI-1 renal = tested on: CAKI-1 renal
# TK-10 renal = tested on: TK-10 renal
# SF-295 CNS = tested on: SF-295 CNS
# MDA-MB-435 melanoma = tested on: MDA-MB-435 melanoma
# COLO 205 colon = tested on: COLO 205 colon
# SW-620 colon = tested on: SW-620 colon
# SK-MEL-5 melanoma = tested on: SK-MEL-5 melanoma
# NCI-H23 lung = tested on: NCI-H23 lung
# HL-60(TB) leukemia = tested on: HL-60(TB) leukemia
# ACHN renal = tested on: ACHN renal
# A549 NSCLC = tested on: A549 NSCLC
# MDA-MB-468 breast = tested on: MDA-MB-468 breast
# RPMI-8226 leukemia = tested on: RPMI-8226 leukemia
# SK-MEL-2 melanoma = tested on: SK-MEL-2 melanoma
# M14 melanoma = tested on: M14 melanoma
# HOP-92 NSCLC = tested on: HOP-92 NSCLC
# HOP-62 NSCLC = tested on: HOP-62 NSCLC
# SF-539 CNS = tested on: SF-539 CNS
# SN12C renal = tested on: SN12C renal
# EKVX NSCLC = tested on: EKVX NSCLC
# NCI/ADR-RES ovarian = tested on: NCI/ADR-RES ovarian
# HS 578T breast = tested on: HS 578T breast
# PC-3 prostate = tested on: PC-3 prostate
# NCI-H460 NSCLC = tested on: NCI-H460 NSCLC
# NCI-H322M lung = tested on: NCI-H322M lung
smiles,measurement,setting,value
CCc1ccc(/C=C2/SC(=S)NC2=O)cc1,GI50,SF-268 CNS,19.3 µM
same,TGI,SF-268 CNS,45.8 µM
same,GI50,KM12 colon,20.7 µM
same,TGI,KM12 colon,44.1 µM
same,GI50,RXF 393 renal,21.2 µM
same,TGI,RXF 393 renal,42.7 µM
same,GI50,CAKI-1 renal,19.3 µM
same,TGI,CAKI-1 renal,47.6 µM
same,GI50,TK-10 renal,26.3 µM
same,TGI,TK-10 renal,74.1 µM
same,GI50,SF-295 CNS,33.7 µM
same,TGI,SF-295 CNS,> 100 µM
same,GI50,MDA-MB-435 melanoma,21.2 µM
same,TGI,MDA-MB-435 melanoma,44.9 µM
same,GI50,COLO 205 colon,27.1 µM
same,TGI,COLO 205 colon,54.1 µM
same,GI50,SW-620 colon,24.5 µM
same,TGI,SW-620 colon,59.6 µM
same,GI50,SK-MEL-5 melanoma,18.6 µM
same,TGI,SK-MEL-5 melanoma,33.1 µM
same,GI50,NCI-H23 lung,15.7 µM
same,TGI,NCI-H23 lung,34.6 µM
same,GI50,HL-60(TB) leukemia,20.3 µM
same,TGI,HL-60(TB) leukemia,34.9 µM
same,GI50,ACHN renal,25 µM
same,TGI,ACHN renal,60.5 µM
same,GI50,A549 NSCLC,19.8 µM
same,TGI,A549 NSCLC,46.2 µM
same,GI50,MDA-MB-468 breast,16.3 µM
same,TGI,MDA-MB-468 breast,33.1 µM
same,GI50,RPMI-8226 leukemia,15.6 µM
same,TGI,RPMI-8226 leukemia,29.1 µM
same,GI50,SK-MEL-2 melanoma,20.9 µM
same,TGI,SK-MEL-2 melanoma,37.7 µM
same,GI50,M14 melanoma,19.6 µM
same,TGI,M14 melanoma,39.6 µM
same,GI50,HOP-92 NSCLC,18.1 µM
same,TGI,HOP-92 NSCLC,37.9 µM
same,GI50,HOP-62 NSCLC,22.1 µM
same,TGI,HOP-62 NSCLC,42.9 µM
same,GI50,SF-539 CNS,15.9 µM
same,TGI,SF-539 CNS,30.8 µM
same,GI50,SN12C renal,29.1 µM
same,TGI,SN12C renal,95.8 µM
same,GI50,EKVX NSCLC,20.8 µM
same,TGI,EKVX NSCLC,49.5 µM
same,GI50,NCI/ADR-RES ovarian,21 µM
same,TGI,NCI/ADR-RES ovarian,45 µM
same,GI50,HS 578T breast,19.4 µM
same,TGI,HS 578T breast,39.5 µM
same,GI50,PC-3 prostate,23.4 µM
same,TGI,PC-3 prostate,49.8 µM
same,GI50,NCI-H460 NSCLC,17.8 µM
same,TGI,NCI-H460 NSCLC,33.3 µM
same,GI50,NCI-H322M lung,22.5 µM
same,TGI,NCI-H322M lung,44.8 µM
